# Like-named read-outs stand apart in the source and are kept apart here.
# System: HBsAg secretion in HepG2.2.15 cells
# Experiment: HBsAg assay (chemiluminescence immunoassay of secreted HBsAg in culture supernatant)
# Assay type: cell-based, HBV
# Conditions: concentration at which HBsAg secretion was reduced by 50% compared to the no drug control, read-out: IC50 (HBsAg assay)
# Experimental: HepG2.2.15 cells (Acs et al. Proc Natl Acad Sci USA, 84, (1987), 4641-4), a constitutively HBV-expressing cell line were cultured in DMEM+Glutamax-I medium (Invitrogen, Carlsbad, Calif., USA), supplemented with 10% fetal bovine serum (Invitrogen) and G418 (Invitrogen) at a final concentration of 200 mg/L and maintained in 5% CO2 at 37° C.
# HepG2.2.15 cells were seeded in duplicate into white, 96-well plates at 1.5×10^4 cells/well. The cells were treated with a three-fold serial dilution series of the compounds in DMSO. The final DMSO concentration in all wells was 1% and DMSO was used as no drug control.
# The HBsAg chemiluminescence immunoassay (CLIA) kit (Autobio Diagnostics Co., Zhengzhou, China, Catalog number: CL0310-2) was used to measure the levels of secreted HBV antigens semi-quantitatively. For the detection 50 μL/well culture supernatant was used and HBsAg was quantified using HBsAg chemiluminescence immunoassay (CLIA) kit (Autobio Diagnostics Co., Zhengzhou, China, Catalog number: CL0310-2), 50 μL of the supernatant was transferred to the CLIA assay plate and 50 μL of enzyme conjugate reagent was added into each well. The plates were sealed and gently agitated for 1 hour at room temperature. The supernatant-enzyme-mixture was discarded and wells were washed 6 times with 300 μL of PBS. The residual liquid was removed by plating the CLIA plate […] on absorbent tissue paper. 25 μL of substrates A and B were added to each well. Luminance was measured using a luminometer (Mithras LB 940 Multimode Microplate Reader) after 10 minutes incubation. Dose-response curves were generated and the IC50 value was extrapolated by using the E-WorkBook Suite (ID Business Solutions Ltd., Guildford, UK). The IC50 was defined as the compound concentration (or conditioned media log dilution) at which HBsAg secretion was reduced by 50% compared to the no drug control.
# The compounds according to formula I were tested for their capacity to inhibit HBsAg as described herein.
# [1] = Hepatitis B virus, HepG2.2.15, HepG2.2.15 cells
Compound,IC50 [1] [nM],IC50 (HepG2.2.15 cells) [nM]
"CC1c2cnc(-c3ncccn3)nc2CCN1c1cc(OCC2CCCO2)cc(F)n1 (stereo not shown) [Example 166, 6-[6-fluoro-4-(tetrahydrofuran-2-ylmethoxy)-2-pyridyl]-5-methyl-2-pyrimidin-2-yl-7,8-dihydro-5H-pyrido[4,3-d]pyrimidine]",19,
"CC1c2cnc(-c3ncccn3)nc2CCN1c1cc(F)c(F)c(OCCCCCN)c1 (stereo not shown) [Example 57, 5-[2,3-difluoro-5-(5-methyl-2-pyrimidin-2-yl-7,8-dihydro-5H-pyrido[4,3-d]pyrimidin-6-yl)phenoxy]pentan-1-amine]",110,
"CC1c2cnc(-c3ncccn3)nc2CCN1c1cc(F)cc(N2CCCC2)n1 (stereo not shown) [Example 199, 6-(4-fluoro-6-pyrrolidin-1-yl-2-pyridyl)-5-methyl-2-pyrimidin-2-yl-7,8-dihydro-5H-pyrido[4,3-d]pyrimidine]",18,
"CC1c2cnc(-c3ncccn3)nc2CCN1c1cc(F)c(F)c(OCCCS(N)(=O)=O)c1 (stereo not shown) [Example 97, 3-[2,3-difluoro-5-(5-methyl-2-pyrimidin-2-yl-7,8-dihydro-5H-pyrido[4,3-d]pyrimidin-6-yl)phenoxy]propane-1-sulfonamide]",154,
"CC1c2cnc(-c3ncccn3)nc2CCN1c1cc(F)c(F)c(OCCCCC(=O)O)c1 (stereo not shown) [Example 63, 5-[2,3-difluoro-5-(5-methyl-2-pyrimidin-2-yl-7,8-dihydro-5H-pyrido[4,3-d]pyrimidin-6-yl)phenoxy]pentanoic acid]",447,
"CC1c2cnc(-c3ncccn3)nc2CCN1c1cc(F)c(F)c(OC2CCOC2)c1 (stereo not shown) [Example 121, 6-(3,4-difluoro-5-tetrahydrofuran-3-yloxy-phenyl)-(5R/S)-methyl-2-pyrimidin-2-yl-7,8-dihydro-5H-pyrido[4,3-d]pyrimidine]",,42
"COC(=O)C(CCOc1cc(N2CCc3nc(-c4ncccn4)ncc3C2C)cc(F)c1F)NC(=O)OC(C)(C)C (stereo not shown) [Example 102, methyl 2-(tert-butoxycarbonylamino)-4-[2,3-difluoro-5-(5-methyl-2-pyrimidin-2-yl-7,8-dihydro-5H-pyrido[4,3-d]pyrimidin-6-yl)phenoxy]butanoate]",249,
"COc1cc(N2CCc3nc(-c4ncccn4)ncc3C2C)cc(F)c1F (stereo not shown) [Example 15, 6-(3,4-difluoro-5-methoxy-phenyl)-5-methyl-2-pyrimidin-2-yl-7,8-dihydro-5H-pyrido[4,3-d]pyrimidine]",,15
"CC1c2cnc(-c3ncccn3)nc2CCN1c1cc(F)c(F)c(OCCCN2CCN(C(=O)OC(C)(C)C)CC2=O)c1 (stereo not shown) [Example 98, tert-butyl 4-[3-[2,3-difluoro-5-(5-methyl-2-pyrimidin-2-yl-7,8-dihydro-5H-pyrido[4,3-d]pyrimidin-6-yl)phenoxy]propyl]-3-oxo-piperazine-1-carboxylate]",372,
"CC1c2cnc(-c3ncccn3)nc2CCN1c1cc(OCCCCC(=O)O)cc(F)n1 (single isomer, unassigned; (-)) [Example 157, (−)-5-[[2-fluoro-6-[5-methyl-2-pyrimidin-2-yl-7,8-dihydro-5H-pyrido[4,3-d]pyrimidin-6-yl]-4-pyridyl]oxy]pentanoic acid]",47,
"CC1c2cnc(-c3ncccn3)nc2CCN1c1cc(OCCCC(N)=O)cc(F)n1 (single isomer, unassigned; (-)) [Example 185, (−)-4-[[2-fluoro-6-[5-methyl-2-pyrimidin-2-yl-7,8-dihydro-5H-pyrido[4,3-d]pyrimidin-6-yl]-4-pyridyl]oxy]butanamide]",14,
"CC1c2cnc(-c3ncccn3)nc2CCN1c1cc(F)cc(C(=O)O)c1 (stereo not shown) [Example 176, 3-fluoro-5-(5-methyl-2-pyrimidin-2-yl-7,8-dihydro-5H-pyrido[4,3-d]pyrimidin-6-yl)benzoic acid]",27800,
"CC1c2cnc(-c3ccccn3)nc2CCN1c1cc(F)c(F)c(OCCCNS(C)(=O)=O)c1 (stereo not shown) [Example 35, N-[3-[2,3-difluoro-5-[5-methyl-2-(2-pyridyl)-7,8-dihydro-5H-pyrido[4,3-d]pyrimidin-6-yl]phenoxy]propyl]methanesulfonamide]",46,
"CC1c2cnc(-c3ccccn3)nc2CCN1c1cc(F)c(F)c(OCCCCO)c1 (stereo not shown) [Example 24, 4-[2,3-difluoro-5-[5-methyl-2-(2-pyridyl)-7,8-dihydro-5H-pyrido[4,3-d]pyrimidin-6-yl]phenoxy]butan-1-ol]",29,
"CC1c2cnc(-c3ncccn3)nc2CCN1c1cc(O)c(F)c(F)c1 (single isomer, unassigned; (+)) [Example 46, (+)-2,3-difluoro-5-(5-methyl-2-pyrimidin-2-yl-7,8-dihydro-5H-pyrido[4,3-d]pyrimidin-6-yl)phenol]",,8170
"CC1c2cnc(-c3ncccn3)nc2CCN1c1cc(F)c(F)c(OCCC[S+](C)[O-])c1 (stereo not shown) [Example 106, 6-[3,4-difluoro-5-(3-methylsulfinylpropoxy)phenyl]-5-methyl-2-pyrimidin-2-yl-7,8-dihydro-5H-pyrido[4,3-d]pyrimidine]",208,
"COCCCS(=O)(=O)c1cc(F)cc(N2CCc3nc(-c4ncccn4)ncc3C2C)c1 (stereo not shown) [Example 187, 6-[3-fluoro-5-(3-methoxypropylsulfonyl)phenyl]-5-methyl-2-pyrimidin-2-yl-7,8-dihydro-5H-pyrido[4,3-d]pyrimidine]",613,
"CC1c2cnc(-c3ncccn3)nc2CCN1c1cc(F)c(F)c(OCCCN2CCCC2=O)c1 (stereo not shown) [Example 96, 1-[3-[2,3-difluoro-5-(5-methyl-2-pyrimidin-2-yl-7,8-dihydro-5H-pyrido[4,3-d]pyrimidin-6-yl)phenoxy]propyl]pyrrolidin-2-one]",94,
"CC1c2cnc(-c3ncccn3)nc2CCN1c1cc(OCCCCCCCC(=O)O)cc(F)n1 (stereo not shown) [Example 168, 8-[[2-fluoro-6-(5-methyl-2-pyrimidin-2-yl-7,8-dihydro-5H-pyrido[4,3-d]pyrimidin-6-yl)-4-pyridyl]oxy]octanoic acid]",21,
"CC(=O)N1CC(CCOc2cc(N3CCc4nc(-c5ncccn5)ncc4C3C)cc(F)c2F)C1 (stereo not shown) [Example 117, 1-[3-[2-[2,3-difluoro-5-(5-methyl-2-pyrimidin-2-yl-7,8-dihydro-5H-pyrido[4,3-d]pyrimidin-6-yl)phenoxy]ethyl]azetidin-1-yl]ethanone]",72,
"CC(=O)N1CC(COc2cc(F)nc(N3CCc4nc(-c5ncccn5)ncc4C3C)c2)C1 (stereo not shown) [Example 160, 1-[3-[[2-fluoro-6-(5-methyl-2-pyrimidin-2-yl-7,8-dihydro-5H-pyrido[4,3-d]pyrimidin-6-yl)-4-pyridyl]oxymethyl]azetidin-1-yl]ethanone]",196,
"CC1c2cnc(-c3ncccn3)nc2CCN1c1cc(F)c(F)c(OCCCS(C)(=O)=O)c1 (single isomer, unassigned; (-)) [Example 49, (−)-6-[3,4-difluoro-5-(3-methylsulfonylpropoxy)phenyl]-5-methyl-2-pyrimidin-2-yl-7,8-dihydro-5H-pyrido[4,3-d]pyrimidine]",,34
"CC1c2cnc(-c3ncccn3)nc2CCN1c1cc(F)cc(N(C)C)n1 (single isomer, unassigned; (-)) [Example 205, (−)-4-fluoro-N,N-dimethyl-6-[5-methyl-2-pyrimidin-2-yl-7,8-dihydro-5H-pyrido[4,3-d]pyrimidin-6-yl]pyridin-2-amine]",,5
"CC1c2cnc(-c3ncccn3)nc2CCN1c1cc(OCC(N)=O)cc(F)n1 (stereo not shown) [Example 174, 2-[[2-fluoro-6-(5-methyl-2-pyrimidin-2-yl-7,8-dihydro-5H-pyrido[4,3-d]pyrimidin-6-yl)-4-pyridyl]oxy]acetamide]",660,
"CC1c2cnc(-c3ncccn3)nc2CCN1c1cc(F)cc(N2CCNC(=O)C2)n1 (single isomer, unassigned; (-)) [Example 225, (−)-4-[4-fluoro-6-(5-methyl-2-pyrimidin-2-yl-7,8-dihydro-5H-pyrido[4,3-d]pyrimidin-6-yl)-2-pyridyl]piperazin-2-one]",,13
"COC(=O)CCCCOc1cc(N2CCc3nc(-c4ncccn4)ncc3C2C)cc(F)c1F (stereo not shown) [Example 62, methyl 5-[2,3-difluoro-5-(5-methyl-2-pyrimidin-2-yl-7,8-dihydro-5H-pyrido[4,3-d]pyrimidin-6-yl)phenoxy]pentanoate]",494,
COc1cc(Cl)nc(N2CCc3nc(-c4ncccn4)ncc3C2C)c1 (stereo not shown) [Example 126],8,
"CC1c2cnc(-c3ncccn3)nc2CCN1c1cc(F)c(F)c(OCCCN2CCNCC2=O)c1 (stereo not shown) [Example 99, 1-[3-[2,3-difluoro-5-(5-methyl-2-pyrimidin-2-yl-7,8-dihydro-5H-pyrido[4,3-d]pyrimidin-6-yl)phenoxy]propyl]piperazin-2-one]",1270,

# Reference: patent US9845322B2 (Hoffmann-La Roche Inc., priority 2016, dated 2017)
